Measured values from patent publication US8557737B2, “Methods of altering poppy characteristics” (priority 2005, dated 2013).

Test system: poppy crops
Test: Example 19: field trial, sulfosulfuron, thifensulfuron-methyl and metsulfuron-methyl, morphine crop
Assay type: in vivo, Papaver somniferum
Conditions: applied at M-LRU and LRU-BE; for PLANT HEIGHT: measured some 10 weeks after last application
Description: All trials were conducted on poppy crops. Seed was treated with Thiram (5.6 g of Thiram 800/kg seed) and Apron (4 g/kg) and sown at a rate of approximately 750 g/ha. Fertilisers were applied at sowing. Most commonly, either 50:50 lime:superphosphate/triple superphosphate at 125 kg/ha, or lime:superphosphate at 250 kg/ha, were mixed with seed and drilled at a depth of 15 mm. In the same operation, NPK (nitrogen:phosphorus:potassium), at various rates, was banded 75 mm below the seed, unless otherwise stated. All crops were subjected to herbicide sprays for weed control, fungicide sprays for disease control, insecticide sprays if appropriate and were irrigated as required.
All spray applications were made with a precision sprayer, using Silvan Lurmark flat-fan, low-drift nozzles (LD110-0015). Spray equipment was calibrated to deliver 153 L water/ha.
At harvest, a 2 m×4 m quadrat was placed in each plot (3 m×6 m, unless otherwise stated) and capsules hand-picked from this area. Capsules were broken up, seed and capsule material separated and weighed. Capsule moisture readings were taken with a moisture meter. Alkaloid yield data were calculated on Pesticide Research Manager (version 5 for Windows) using the formulae below. Briefly, capsule weight was adjusted for moisture to a dry weight, 5% of seed weight was added to this (this amount of capsule material regularly occurs in seed samples after processing) to give a capsule weight per plot. Seed weight was adjusted to 95% of crude weight. Straw weights were determined by multiplying dry capsule weight by 1.3 (estimated amount of stem material in a commercial harvest) and adjusted to 11% moisture. When Lontrel was applied to crops exact capsule and seed weight data were entered. Analyses of variance and a Multiple Range Test were performed on data using Pesticide Research Manager.
Trial to evaluate applications of sulfosulfuron, thifensulfuron-methyl and metsulfuron-methyl, in a morphine crop. Treatment sprays were applied to crop at mid-late run-up and late-run-up/bud-emergence, respectively. Plant heights were measured some 10 weeks after the last application. Lodging was assessed at capsule harvest.

[1] = 1.35 G/HA + ACTIVATOR .125 % V/V
[2] = 4.5 G/HA + ACTIVATOR .125 % V/V
[3] = 450 MG/HA + ACTIVATOR .125 % V/V

## COC(=O)c1sccc1S(=O)(=O)NC(=O)Nc1nc(C)nc(OC)n1 [Compound 4, thifensulfuron-methyl]
[1]
  CAPSULE/SEED RATIO: 3.299
  CROP WEIGHT: 0.22 t/ha
  MORPHINE: 4.10 kg/ha
  SEED: 39 kg/ha
  STRAW: 184 kg/ha
  STRAW MORPHINE %: 2.23%
  PLANT HEIGHT: 65 cm
[2]
  CAPSULE/SEED RATIO: 0
  CROP WEIGHT: 0 t/ha
  MORPHINE: 0 kg/ha
  SEED: 0 kg/ha
  STRAW: 0 kg/ha
  STRAW MORPHINE %: 0%
  PLANT HEIGHT: 0 cm
[3]
  CAPSULE/SEED RATIO: 5.209
  CROP WEIGHT: 0.87 t/ha
  MORPHINE: 16.19 kg/ha
  SEED: 103 kg/ha
  STRAW: 771 kg/ha
  STRAW MORPHINE %: 2.10%
  PLANT HEIGHT: 78 cm

## CCS(=O)(=O)c1nc2ccccn2c1S(=O)(=O)NC(=O)Nc1nc(OC)cc(OC)n1 [Compound 5, sulfosulfuron]
60 MG/HA + SWIFT 1 % V/V
  CAPSULE/SEED RATIO: 2.324
  CROP WEIGHT: .96 t/ha
  MORPHINE: 19.19 kg/ha
  SEED: 220 kg/ha
  STRAW: 738 kg/ha
  STRAW MORPHINE %: 2.6%
  PLANT HEIGHT: 73 cm
180 MG/HA + SWIFT 1 % V/V
  CAPSULE/SEED RATIO: 2.898
  CROP WEIGHT: 1.15 t/ha
  MORPHINE: 22.90 kg/ha
  SEED: 223 kg/ha
  STRAW: 931 kg/ha
  STRAW MORPHINE %: 2.46%
  PLANT HEIGHT: 75 cm
600 MG/HA + SWIFT 1 % V/V
  CAPSULE/SEED RATIO: 4.564
  CROP WEIGHT: 0.89 t/ha
  MORPHINE: 20.74 kg/ha
  SEED: 118 kg/ha
  STRAW: 774 kg/ha
  STRAW MORPHINE %: 2.68%
  PLANT HEIGHT: 80 cm
